In patent US10130101B2 (priority 2015, dated 2018):

How the values were obtained:
[1] = tested on: pyrethroid resistant bed bugs, Cimex lectularius (ECL-05 strain); format: in vivo; details: day 7; 0.05% imidacloprid formulation, not diluted; direct spray 0.50 g per replication
Protocol: Treatments 1 to 4 were diluted in acetone to 5.5% w/w. Treatment 5 was not diluted.
The ECL-05 strain of bugs was used in the study. This strain represents an aggregate colony of pyrethroid resistant strains of bed bugs from Minnesota, Wisconsin, Florida and New Jersey.
Adult male bed bugs, 5 to 6 weeks old, were sorted from the colonies at the University of Minnesota using a pair of soft tissue forceps (Fisher Scientific, Pittsburgh, Pa., USA). Bed bugs were transferred to Applicant and maintained in a glass jar with a mesh screen top, as described above, in an environmental chamber (Darwin Chamber Company, Saint Louis, Mo., USA) at 27° C. and 65% relative humidity until testing.
For testing, 10 adult males were transferred into specific bed bug spray containers using soft tissue forceps. Bed bug spray containers were constructed by placing a 150 mm Whatman filter paper (Fisher Scientific, Pittsburgh, Pa., USA) onto the top of a stainless steel, round ring (10 cm in diameter and 3.25 cm in height). A second stainless steel ring of similar dimensions was then stacked on top of the base ring creating a double-ring structure with a filter paper surface in between. The sides of the double ring structure were secured with laboratory labeling tape (Fisher Scientific, Pittsburgh, Pa., USA). […]

[2] = tested on: pyrethroid resistant bed bugs; test: whole plant or invertebrate; format: in vivo; details: Cimex lectularius, 168 h; 7 days; imidacloprid at 0.05% w/w
Description: For testing, 10 adult males were transferred into specific bed bug spray containers using soft tissue forceps. Bed bug spray containers were constructed by placing a 150 mm Whatman filter paper (Fisher Scientific, Pittsburgh, Pa., USA) onto the top of a stainless steel, round ring (10 cm in diameter and 3.25 cm in height). A second stainless steel ring of similar dimensions was then stacked on top of the base ring creating a double-ring structure with a filter paper surface in between. The sides of the double ring structure were secured with laboratory labeling tape (Fisher Scientific, Pittsburgh, Pa., USA). In the resulting setup, the filter paper provides a non-abrasive surface for bed bugs to rest on while it also serves to absorb any overspray in the container. Following the transfer of bed bugs from the colony jar, bed bugs were allowed to recover for 1 hour in the spray container before treatment application commenced.
Treatments were administered using a DeVilbiss 151 atomizer (The DeVilbiss Co., Glendale Heights, Ill., USA) attached to a Paasche D500 air compressor (Paasche Airbrush Company, Chicago, Ill., USA). Treatment volume was set at 0.50 g of treatment solution per replication. […]
Mortality at day 7 was analyzed by one-way analysis of variance (ANOVA). […]

For O=[N+]([O-])NC1=NCCN1Cc1ccc(Cl)nc1 [Imidacloprid, imidacloprid], the “Mortality (%)” value [1] was 100.0% and the mortality at 0.05 % strength [2] was 100%.
